# In US20120165319A1, “INHIBITORS OF INTERLEUKIN-1 BETA CONVERTING ENZYME” (VERTEX PHARMACEUTICALS INCORPORATED, priority 1995, published 2012):
# pIC50, pKi: −log10 of the molar value.
# How the values were obtained:
# ICE = biological target: T1, ICE (Homo sapiens, UniProt P29466); test: Enzyme assay with fluorescent substrate (Acetyl-Tyr-Val-Ala-Asp-AMC); Ki and second order rate constants kinact; type: biochemical; details: for kinact (ICE): second-order rate constant for inactivation, irreversible inhibitors (Table 2)
# T1 sequence (P29466 120-297 limits assumed): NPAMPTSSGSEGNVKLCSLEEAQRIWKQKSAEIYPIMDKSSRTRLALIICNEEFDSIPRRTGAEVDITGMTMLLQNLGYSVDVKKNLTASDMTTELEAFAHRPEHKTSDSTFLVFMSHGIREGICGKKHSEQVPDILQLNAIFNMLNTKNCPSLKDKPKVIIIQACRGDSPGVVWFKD
# T1 sequence (P29466 317-404 limits assumed): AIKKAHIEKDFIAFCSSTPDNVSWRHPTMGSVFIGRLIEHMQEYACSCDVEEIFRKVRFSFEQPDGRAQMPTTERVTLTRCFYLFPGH
# Description: 2. Enzyme Assay with Fluorescent Substrate
# This assay is run essentially according to Thornberry et al. (Nature 356: 768-774 (1992)), using substrate 17 referenced in that article. The substrate is: Acetyl-Tyr-Val-Ala-Asp-amino-4-methylcoumarin (AMC). The following components are mixed:
# The assay is run in a 96 well microtiter plate. Buffer and ICE are added to the wells. The components are left to incubate at 37° C. for 15 minutes in a temperature-controlled wellplate. After the 15 minute incubation, the reaction is started by adding substrate directly to the wells and the reaction is monitored @37° C. for 30 minutes by following the release of the AMC fluorophore using an excitation wavelength for 380 nm and an emission wavelength of 460 nm. A linear fit of the data for each well is performed and a rate is determined in fluorescence units per second.
# For determination of enzyme inhibition constants (Ki) or the mode of inhibition (competitive, uncompetitive or noncompetitive), the rate data determined in the enzyme assays at varying inhibitor concentrations are computer-fit to standard enzyme kinetic equations (see I. H. Segel, Enzyme Kinetics, Wiley-Interscience, 1975).
# The determination of second order rate constants for irreversible inhibitors was performed by fitting the fluorescence vs time data to the progress equations of Morrison. Morrison, J. F., Mol. Cell. Biophys., 2, pp. 347-368 (1985). Thornberry et al. have published a description of these methods for measurement of rate constants of irreversible inhibitors of ICE. Thornberry, N. A., et al. Biochemistry, 33, pp. 3923-3940 (1994). For compounds where no prior complex formation can be observed kinetically, the second order rate constants (kinact) are derived directly from the slope of the linear plots of kobs vs. [I]. For compounds where prior complex formation to the enzyme can be detected, the hyperbolic plots of kobs vs. [I] are fit to the equation for saturation kinetics to first generate Ki and k′. The second order rate constant kinact is then given by k′/Ki.
# The selectivity of a panel of reversible inhibitors for ICE homologs is depicted in Table 1. ICE enzyme assays were performed according to Wilson et al (supra 1994) using a YVAD-AMC substrate (Thornberry et al, supra 1992). Assay of TX activity was performed using the ICE substrate under identical conditions to ICE. Assay of CPP32 was performed using a DEVD-AMC substrate (Nicholson et al., supra 1995). In general, there is low selectivity between ICE and TX for a wide range of scaffolds. None of the synthetic ICE compounds tested are effective inhibitors of CPP32.
# Second-order rate constants for inactivation of ICE and ICE homologs with selected irreversible inhibitors are presented below (Table 2). The irreversible compounds studied are broad spectrum inhibitors of ICE and its homologs. Some selectivity, however, is observed with the irreversible compounds comparing inhibition of ICE and CPP32.
# U937 cells = test: Fas-induced apoptosis in U937 cells; details: for inhibition at 20 µM: U-937, read-out: Inhibition of apoptosis
# Description: Fas-Induced Apoptosis in U937 cells. Compounds were evaluated for their ability to block anti-Fas-induced apopotosis. […] We used this cell line for apoptosis studies. U937 cells were seeded in culture at 1×10^5 cells/ml and grown to ˜5×10^6 cells/ml. For apoptosis experiments, 2×10^6 cells were plated in 24-well tissue culture plates in 1 ml RPMI-1640-10% FBS and stimulated with 100 ng/ml anti-Fas antigen antibody (Medical and Biological Laboratories, Ltd.). After a 24 hr incubation at 37° C., the percentage of apoptotic cells was determined by FACS analysis using ApoTag reagents.
# [1] = In vivo bioavailability determination (oral, rat)
# Description: In Vivo Bioavailability Determination
# The drugs (10-100 mg/kg) were dosed orally to rats (10 mL/kg) in ethanol/PEG/water, β-cyclodextrin, labrosol/water or cremophor/water. Blood samples were drawn from the carotid artery at 0.25, 0.50, 1, 1.5, 2, 3, 4, 6, and 8 hours after dosing, centrifuged to plasma and stored at −70° C. until analysis. Aldehyde concentrations were determined using an enzymatic assay. Pharmacokinetic analysis of data was performed by non-linear regression using RStrip (MicroMath Software, UT).
# [2] = Measurement of blood levels of prodrugs of 214e after p.o. dosing in mice; type: in vivo, mouse
# Description: Measurement of Blood Levels of Prodrugs of 214e
# Mice were administered a p.o. dose of compounds 302 and 304a (50 mg/kg) prepared in 0.5% carboxymethylcellulose. Blood samples were collected at 1 and 7 hours after dosing. Serum was extracted by precipitation with an equal volume of acetonitrile containing 2% formic acid followed by centrifugation. The supernatant was analyzed by liquid chromatography-mass spectrometry (ESI-MS) with a detection level of 0.03 to 3 μg/ml.
compound,measurement,setting,value
"O=C(O)C[C@H](NC(=O)[C@@H]1CCCN2C(=O)CC[C@H](NC(=O)OCc3ccccc3)C(=O)N12)C(=O)COC(=O)c1c(Cl)cccc1Cl [Compound 217d, [3S(1S,9S)]3-(9-Benzyloxycarbonylamino-6,10-dioxo-1,2,3,4,7,8,9,10-octahydro-6H-pyridazino[1,2-a][1,2]-diazepine-1-carboxamido)-5-(2,6-dichlorobenzoyloxy)-4-oxopentanoic acid]",Fluorescent Assay kinact,ICE; Table 6,4.7 × 10^5 m^−1 s^−1
same,kinact (ICE),ICE,"475,000 M^−1 s^−1"
CS(=O)(=O)N[C@H]1CCC(=O)N2CCC[C@@H](C(=O)N[C@@H](CC(=O)O)C(=O)COC(=O)c3c(Cl)cccc3Cl)N2C1=O [Compound 138],inhibition at 20 µM,U937 cells; Homo sapiens,> 75%
same,Fluorescent Assay kinact,ICE; Table 6,1.2 × 10^5 m^−1 s^−1
same,kinact (ICE),ICE,"120,000 M^−1 s^−1"
"O=C(O)C[C@H](NC(=O)[C@@H]1CCCN2C(=O)CC[C@H](NC(=O)c3ccccc3)C(=O)N12)C(=O)COc1cccnc1 [Compound 283, [3S(1S,9S)]3-[9-Benzoylamino-6,10-dioxo-1,2,3,4,7,8,9,10-octahydro-6H-pyridazino[1,2-a][1,2]diazepine-1-carboxamido]-4-oxo-5-(3-pyridyloxy)pentanoic acid]",Fluorescent Assay kinact,ICE; Table 6,1 × 10^5 m^−1 s^−1
"COC(=O)N[C@H]1CCC(=O)N2CCC[C@@H](C(=O)N[C@@H](CC(=O)O)C(=O)COC(=O)c3c(C)cccc3C)N2C1=O [Compound 285, [3S(1S,9S)]5-(2,6-Dimethylbenzoyloxy)-3-[6,10-dioxo-9-(methoxycarbonyl)amino-1,2,3,4,7,8,9,10-octahydro-6H-pyridazino[1,2-a][1,2]diazepine-1-carboxamido]-4-oxopentanoic acid]",Fluorescent Assay kinact,ICE; Table 6,4.3 × 10^5 m^−1 s^−1
"CS(=O)(=O)N[C@H]1CCC(=O)N2CCC[C@@H](C(=O)N[C@@H](CC(=O)O)C(=O)COC(=O)c3cccc4ccccc34)N2C1=O [Compound 286, [3S(1S,9S)]3-(6,10-Dioxo-9-methanesulphonylamino-1,2,3,4,7,8,9,10-octahydro-6H-pyridazino[1,2-a][1,2]diazepine-1-carboxamido)-5-(1-naphthoyloxy)-4-oxopentanoic acid]",Fluorescent Assay kinact,ICE; Table 18,370000 m^−1 s^−1
O=C(O)C[C@H](NC(=O)[C@@H]1CCCN2C(=O)CC[C@H](NC(=O)CCc3ccccc3)C(=O)N12)C(=O)COC(=O)c1c(Cl)cccc1Cl [Compound 136],inhibition at 20 µM,U937 cells; Homo sapiens,> 75%
same,Fluorescent Assay kinact,ICE; Table 6,5.4 × 10^5 m^−1 s^−1
"O=C[C@H](CC(=O)O)NC(=O)[C@@H]1CCCN2C(=O)CC[C@H](NC(=O)c3ccccc3)C(=O)N12 [Compound 214e, [3S(1S,9S)]3-(9-Benzoylamino-6,10-dioxo-1,2,3,4,7,8,9,10-octahydro-6H-pyridazino[1,2-a][1,2]-diazepine-1-carboxamido)-4-oxobutanoic acid]",blood levels of drug when dosed orally,"[1]; oral 10-100 mg/kg, result in words",not detected
same,Drug Availability,"[1]; oral, dose 45 mg/kg",0.9%
same,Cmax,"[1]; plasma, oral, dose 45 mg/kg, read-out: Cmax",200 ng/mL
same,blood levels when administered orally,"[2]; orally, detection level 0.03 to 3 μg/ml",≤ 100 ng/mL
same,Inhibition of apoptosis,"U937 cells; anti-Fas-induced apoptosis, U937 cells, 20 μM",no inhibition
same,pKi,"ICE; YVAD-AMC substrate, reversible inhibitors (Table 1)",8.12
"O=C(O)C[C@H](NC(=O)[C@@H]1CCCN2C(=O)CC[C@H](NC(=O)c3ccccc3)C(=O)N12)C(=O)COC(=O)c1c(Cl)cccc1Cl [Compound 217e, [3S(1S,9S)]3-(9-Benzoylamino-6,10-dioxo-1,2,3,4,7,8,9,10-octahydro-6H-pyridazino[1,2-a][1,2]-diazepine-1-carboxamido)-5-(2,6-dichlorobenzoyloxy)-4-oxopentanoic acid]",pIC50,"U937 cells; Homo sapiens, U-937, 24 h, read-out: IC50, anti-Fas-induced apoptosis",6.10
"O=C(O)C[C@H](NC(=O)[C@@H]1CCCN2C(=O)CC[C@H](NC(=O)c3ccccc3)C(=O)N12)C(=O)CSc1nnnn1-c1ccccc1 [Compound 280, [3S(1S,9S)]3-(9-Benzoylamino-6,10-dioxo-1,2,3,4,7,8,9,10-octahydro-6H-pyridazino[1,2-a][1,2]diazepine-1-carboxamido)-4-oxo-5(1-phenyl-1H-tetrazole-5-thio)pentanoic acid]",Fluorescent Assay kinact,ICE; Table 6,4 × 10^5 m^−1 s^−1
"[3S(1S,9S)]3-[(6,10-Dioxo-9-(methanesulphonylamino)-1,2,3,4,7,8,9,10-octahydro-6H-pyridazino[1,2-a][1,2]diazepine-1-carboxamido]-5-(5-methyl-3-phenylisoxazoyloxy)-4-oxopentanoic acid [505 b]",Fluorescent Assay kinact,ICE; Table 18,190000 m^−1 s^−1
"CS(=O)(=O)N[C@H]1CCC(=O)N2CCC[C@@H](C(=O)N[C@@H](CC(=O)O)C(=O)COC(=O)c3sccc3Cl)N2C1=O [505 e, [3S(1S,9S)]5-(3-Chlorothien-2-oyloxy)-3-(6,10-dioxo-9-methanesulphonylamino-1,2,3,4,7,8,9,10-octahydro-6H-pyridazino[1,2-a][1,2]diazepine-1-carboxamido)-4-oxopentanoic acid]",Fluorescent Assay kinact,ICE; Table 18,420000 m^−1 s^−1
"CC(C)(C)OC(=O)C[C@@H](C=O)NC(=O)[C@@H]1CCCN2C(=O)CC[C@H](NC(=O)c3ccccc3)C(=O)N12 [Compound 302, [3S(1S,9S)3-(9-Benzoylamino-6,10-dioxo-1,2,3,4,7,8,9,10-octahydro-6H-pyriazino-[1,2-a][1,2]diazapine-1-carboxamido)-amino]-4-oxobutanoic acid tert-butyl ester]",blood levels when administered orally (in words),"[2]; p.o. 50 mg/kg in 0.5% carboxymethylcellulose, blood at 1 and 7 hours",detectable blood levels
"COC(=O)N[C@H]1CCC(=O)N2CCC[C@@H](C(=O)N[C@@H](CC(=O)O)C(=O)COC(=O)c3c(Cl)cccc3Cl)N2C1=O [Compound 284, [3S(1S,9S)]5-(2,6-Dichlorobenzoyloxy)-3-[6,10-dioxo-9-(methoxycarbonyl)amino-1,2,3,4,7,8,9,10-octahydro-6H-pyridazino[1,2-a][1,2]diazepine-1-carboxamido]-4-oxopentanoic acid]",Fluorescent Assay kinact,ICE; Table 6,3.5 × 10^5 m^−1 s^−1
